This is an account of results in patent US20130210057A1, “USE OF LABEL-FREE BIOSENSORS TO UNDERSTAND AND IDENTIFY TREATMENT FOR CANCER” (CORNING INCORPORATED, priority 2012, published 2013).

Assay type in all cases: cell-based, human
Assay [1] concerns Akt, ERK1/2, EGFR, c-Src, STAT3 phosphorylation in PTEN null cells. As to the kind of experiment: Western blot analysis of key signaling proteins in GPCR signaling. The settings on record: serum-starved, 5 min treatment; for Akt activation (phospho-Akt): SFLLR, SLIGKV 1 μM, S1P, LPA 2.5 μM.
In assay [2] the test system is Akt, ERK1/2, EGFR, c-Src, STAT3 phosphorylation in HCT116 parental cells. The description is as above. The settings on record: serum-starved, 5 min treatment; for Akt activation (phospho-Akt): SFLLR, SLIGKV 1 μM, S1P, LPA 2.5 μM.
For assay [3], the system named is HCT116-PTEN Null cell line. Description: Label-free RWG biosensor DMR assay. The source says: (§1) EPIC® beta version wavelength interrogation system (Corning Inc., NY) was used for whole cell sensing. This system consists of a temperature-control unit, an optical detection unit, and an on-board liquid handling unit with robotics. The detection unit is centered on integrated fiber optics, and enables kinetic measures of cellular responses with a time interval of ˜15 sec. Also EPIC® commercial systems were used, with a liquid handler accessory attached to EPIC® reader system. Also, an Epic® RWG imager can be used.
(§2) The resonant waveguide grating (RWG) biosensor is capable of detecting minute changes in local index of refraction near the sensor surface and the waveguide thin film having gratings provide a cell culture surface. Since the local index of refraction within a cell is a function of density and its distribution of biomass (e.g., proteins, molecular complexes), the biosensor exploits its evanescent wave to non-invasively detect ligand-induced Dynamic Mass Redistribution (DMR) in native cells. When a cell is stimulated, it responds. That response is a redistribution of biomass in the cell. Upon stimulation, proteins, protein complexes, and/or organelles in the cells move. The evanescent wave extends into the cells and exponentially decays over distance, leading to a characteristic sensing depth of ˜150 nm. Any optical response mediated through receptor activation only represents an average over the portion of the cell that the evanescent wave is sampling. The aggregation of many cellular events downstream to the receptor activation leads to a DMR signal having characteristic kinetics and amplitudes.
(§3) All assays were carried out at a controlled temperature (28° C.). At least two independent sets of experiments, each with at least three replicates, were performed.

Assay [4] concerns HCT116 parental cell line. Description: Label-free RWG biosensor DMR assay. The following applies: HCT116 parental.
Description: as §1, §2, §3

The subject of a further assay is HCT116 PTEN null cells. Description: Calcium flux assay (FLUO-4, FDSS/FLIPR). The following applies: small molecule agonists 10 micromolar, peptide and lipid agonists 1 micromolar. From the text: (§4) To screen endogenous receptors and their coupled signaling pathways, we first assembled a GPCR agonist focused library (Table 1). The library consists of 120 GPCR agonists covering over 150 known GPCRs, based on their known pharmacology including polypharmacology. For small molecule chemical agonists, the dose used was 10 micromolar. For peptide agonists, the dose used was 1 micromolar. For lipid agonists, the dose used was also 1 micromolar. For both peptides and lipids, these agonists were suspended in a solution containing 0.05% bovine […] to increase their stability.
Background: Calcium flux is commonly read through the fluorescence of an indicator in the cells.

A further assay has as its system HCT116 parental cells. Description: Calcium flux assay (FLUO-4, FDSS/FLIPR). The following applies: small molecule agonists 10 micromolar, peptide and lipid agonists 1 micromolar.
Description: as §4

Ends that are not written are not given here.

Consider `CCCCCCCCCCCCC/C=C/[C@@H](O)[C@@H](N)COP(=O)(O)O` [S1P, sphingosine-1-phosphate], for which the EGFR activation entry in assay [1] is listed as “did not activate”. The “Akt activation (phospho-Akt)” value in assay [1] and in assay [2] was “did not activate” throughout.
For the compound `Nc1ncnc2c1ncn2[C@@H]1O[C@H](COP(=O)(O)OP(=O)(O)OP(=O)(O)O)[C@@H](O)[C@H]1O` [ATP], in assay [3] (10 μM agonist (EGF, IGF1 1 μM)), the “agonist DMR in PTEN deleted cell line compared to parental cell line (sensitivity to PTEN deletion)” value is listed as “dramatically different”. The “receptor / signaling pathway activated (pathway deconvolution of DMR with toxins)” value in assay [3] (HCT116-PTEN Null, 10 μM agonist) is “activates multiple GPCRs and mediates signaling via multiple G proteins”; in assay [4] (10 μM agonist), “activates multiple GPCRs and mediates signaling via multiple G proteins”. Besides, the “Ca^2+ mobilization (fold increase in fluorescence, FLIPR)” value in the assay with HCT116 PTEN null cells and in the assay on HCT116 parental cells was “robust Ca^2+ mobilization” throughout.
Regarding `O=c1ccn([C@@H]2O[C@H](COP(=O)(O)OP(=O)(O)O)[C@@H](O)[C@H]2O)c(=O)[nH]1` [UDP], the “Ca^2+ mobilization (fold increase in fluorescence, FLIPR)” value in the assay with HCT116 PTEN null cells and in the assay with HCT116 parental cells was “robust Ca^2+ mobilization” in each case.
Regarding SFLLR-amide, in assay [3] (10 μM agonist (EGF, IGF1 1 μM)), the “agonist DMR in PTEN deleted cell line compared to parental cell line (sensitivity to PTEN deletion)” value was “distinct characteristics”. Further, the “agonist-induced DMR signal” value in assay [3] (HCT116-PTEN Null, untreated, 10 μM agonist (EGF, IGF1 1 μM)) was “robust DMR signal”; in assay [4] (untreated, 10 μM agonist (EGF, IGF1 1 μM)), “robust DMR signal”. Besides, the “potency to trigger DMR, PTEN null vs parental” value in assay [3] (dose response, early P-DMR or late P-DMR (50 min poststimulation) amplitudes) is listed as “almost identical”. The “efficacy to trigger DMR, PTEN null vs parental” value in assay [3] (dose response, early or late P-DMR event) was “higher efficacy”. Moreover, the “level of phosphorylated STAT3” value in assay [1] and in assay [2] was “significantly increased” throughout. Also, the “Akt activation (phospho-Akt)” value in assay [1] and in assay [2] was “did not activate” in each case. Besides, the “Ca^2+ mobilization (fold increase in fluorescence, FLIPR)” value in the assay with HCT116 PTEN null cells and in the assay on HCT116 parental cells was “robust Ca^2+ mobilization” in each case.
Take SLIGKV-NH2: the “Akt activation (phospho-Akt)” value in assay [1] and in assay [2] was “did not activate” throughout. Further, the “Ca^2+ mobilization (fold increase in fluorescence, FLIPR)” value with HCT116 PTEN null cells and with HCT116 parental cells was “robust Ca^2+ mobilization” throughout.
